Results reported in BindingDB's records for doi:10.1021/bi00152a045 (Mcmaster University, 1992).

These compounds were tested against Protein kinase C alpha type (Rattus norvegicus, UniProt P05696) (assay: Mixed Micelle Assay). Settings: pH 7.5; 30 °C.
Text: The triton X-100 assay previously described by Bell and co-workers were used to measure enzyme activity.
`CC(C)CCCC(N)C1CCN2C3OC=C4CC(OC(=O)CCC(=O)OC(CN(C)C)CN(C)C)CCC4(C)C3CCC12C` (stereo not drawn) [Amphiphile, X] was tested, and the IC50 was 408 µM. Work on `CC(C)CCCC(N)C1CCN2C3OC=C4CC(OC(=O)CCC(=O)NCCN(C)C)CCC4(C)C3CCC12C` (stereo not drawn) [Amphiphile, VIII] yielded an IC50 of 191 µM. With `CC(C)CCCC(N)C1CCN2C3OC=C4CC(OC(=O)CCC(=O)OCCN(C)CC[N+](C)(C)C)CCC4(C)C3CCC12C` (stereo not drawn) [Amphiphile, XIII] the IC50 was 20 µM. For `CC(C)CCCC(C)C1CCC2C3CC=C4CC(C(=O)NCC[N+](C)(C)C)CCC4(C)C3CCC12C` (stereo not drawn) [Amphiphile, IV], the IC50 was 12 µM. In the case of `CCCCCCCCCCCCCCCCCCCCCC(=O)OC(CN(C)C)C[N+](C)(C)C` (stereo not drawn) [Amphiphile, XVI], the IC50 is reported as 26 µM. `CC(C)CCCC(C)C1CCC2C3CC=C4CC(C(=O)NCCN(C)C)CCC4(C)C3CCC12C` (stereo not drawn) [Amphiphile, III] was tested, and the IC50 was 258 µM. Compound `CC(C)CCCC(C)C1CCC2C3CC=C4CC(C(=O)NCCN)CCC4(C)C3CCC12C` (stereo not drawn) [Amphiphile, VII] has an IC50 of 246 µM. `CCCCCCCCCCCCCCCCCCCCCCCC(=O)OC(CN(C)C)C[N+](C)(C)C` (stereo not drawn) [Amphiphile, XVII] was tested, and the IC50 was 40 µM. Work on `CC(C)CCCC(N)C1CCN2C3OC=C4CC(OC(=O)CCC(=O)OCCN(C)CCN(C)C)CCC4(C)C3CCC12C` (stereo not drawn) [Amphiphile, XII] yielded an IC50 of 164 µM. With `CC(C)CCCC(N)C1CCN2C3OC=C4CC(OC(=O)CCC(=O)OC(CN(C)C)C[N+](C)(C)C)CCC4(C)C3CCC12C` (stereo not drawn) [Amphiphile, XI] the IC50 was 15 µM. Compound `CC(C)CCCC(C)C1CCC2C3CC=C4CC(C(=O)OC(CN(C)C)CN(C)C)CCC4(C)C3CCC12C` (stereo not drawn) [Amphiphile, V] has an IC50 of 643 µM. Work on `CC(C)CCCC(N)C1CCN2C3OC=C4CC(OC(=O)CCC(=O)NCC[N+](C)(C)C)CCC4(C)C3CCC12C` (stereo not drawn) [Amphiphile, IX] yielded an IC50 of 59 µM. For `CC(C)CCCC(C)C1CCC2C3CC=C4CC(C(=O)OC(CN(C)C)C[N+](C)(C)C)CCC4(C)C3CCC12C` (stereo not drawn) [Amphiphile, VI], the IC50 was 11 µM.
